Source: ChEMBL document CHEMBL2040837, “Synthesis and cytotoxic activity of some 17-picolyl and 17-picolinylidene androstane derivatives” (Eur J Med Chem, 2012)

Legend:
HeLa = experiment: Cytotoxicity against human HeLa cells […] by SRB assay; assay type: functional, cell-based
HT-29 = experiment: Cytotoxicity against human HT-29 cells […] by SRB assay; assay type: functional, cell-based
MRC5 = experiment: Cytotoxicity against human MRC5 cells […] by SRB assay; assay type: cell-based
PC-3 = experiment: Cytotoxicity against AR-negative human PC3 cells after 48 hr by SRB assay; details: PC-3, 48 h
MCF7 = experiment: Cytotoxicity against ER-positive human MCF7 cells after 48 hr by SRB assay; details: MCF7, 48 h
MDA-MB-231 [1] = experiment: Cytotoxicity against ER-negative human MDA-MB-231 cells after 48 hr by SRB assay; details: for IC50: MDA-MB-231, 48 h
MDA-MB-231 [2] = experiment: Ratio of 17alpha-picolyl-androst-5-en 3beta, 17beta-diol IC50 to compound IC50 cytotoxicity against ER-negative human MDA-MB-231 cells after 48 hr by SRB assay
MDA-MB-231 [3] = experiment: Cytotoxicity against ER-negative human MDA-MB-231 cells at <1 uM after 48 hr by SRB assay

## COC1=C2CC[C@@H]3[C@H](CC[C@@]4(C)[C@H]3CC[C@@]4(O)Cc3ccccn3)[C@@]2(C)CCC1=O
HeLa
  IC50: 19.1 µM
HT-29
  IC50: > 100 µM
MRC5
  IC50: > 100 µM
PC-3
  IC50: 54.8 µM
MCF7
  IC50: > 100 µM
MDA-MB-231 [1]
  Activity: Dose-dependent effect
  IC50: 42.6 µM

## C[C@]12CCC(=O)C(O)=C1C=C[C@@H]1[C@@H]2CC[C@@]2(C)[C@H]1CC[C@@]2(O)Cc1ccccn1
HeLa
  IC50: 36.6 µM
HT-29
  IC50: > 100 µM
MRC5
  IC50: > 100 µM
PC-3
  IC50: 25.6 µM
MCF7
  IC50: 3.6 µM
MDA-MB-231 [1]
  Activity: Dose-dependent effect
  IC50: 1.2 µM

## COc1cccc2c1C(=O)c1c(O)c3c(c(O)c1C2=O)C[C@@](O)(C(=O)CO)C[C@@H]3O[C@H]1C[C@H](N)[C@H](O)[C@H](C)O1 [DOXORUBICIN]
HeLa
  IC50: 1.17 µM
HT-29
  IC50: 0.32 µM
MRC5
  IC50: 0.12 µM
PC-3
  IC50: 95.6 µM
MCF7
  IC50: 0.75 µM
MDA-MB-231 [1]
  Activity: Dose-dependent effect
  IC50: 0.12 µM

## C[C@]12CCC=CC1=CC[C@@H]1[C@@H]2CC[C@@]2(C)[C@H]1CC[C@@]2(O)Cc1ccccn1
HeLa
  IC50: 27.5 µM
HT-29
  IC50: 11.7 µM
MRC5
  IC50: > 100 µM
PC-3
  IC50: 24.7 µM
MCF7
  IC50: 17.4 µM
MDA-MB-231 [1]
  Activity: Dose-dependent effect
  IC50: 2.3 µM

## C[C@]12CC[C@H](O)[C@@H](O)C1=CC[C@@H]1[C@@H]2CC[C@@]2(C)[C@H]1CC[C@@]2(O)Cc1ccccn1
HeLa
  IC50: 21.3 µM
HT-29
  IC50: 2.6 µM
MRC5
  IC50: > 100 µM
PC-3
  IC50: 21.3 µM
MCF7
  IC50: > 100 µM
MDA-MB-231 [1]
  Activity: Dose-dependent effect
  IC50: 5.6 µM
MDA-MB-231 [2]
  Ratio IC50: 17

## C[C@]12CCC(=O)C(O)=C1C=C[C@@H]1[C@@H]2CC[C@]2(C)/C(=C/c3ccccn3)CC[C@@H]12
MRC5
  IC50: > 100 µM
PC-3
  IC50: > 100 µM
MCF7
  IC50: > 100 µM
MDA-MB-231 [1]
  Activity: Dose-dependent effect
  IC50: 9.3 µM

## C[C@]12CC[C@H]3[C@@H](C[C@@H]4O[C@@]45C[C@@H](O)CC[C@]35C)[C@@H]1CC[C@@]2(O)Cc1cccc[n+]1[O-]
HeLa
  IC50: 33.5 µM
HT-29
  IC50: 25.8 µM
MRC5
  IC50: > 100 µM
PC-3
  IC50: 33.6 µM
MCF7
  IC50: > 100 µM
MDA-MB-231 [1]
  Activity: Dose-dependent effect
  IC50: 7.5 µM

## C[C@]12CC[C@H](O)CC1=CC[C@@H]1[C@@H]2CC[C@@]2(C)[C@H]1CC[C@@]2(O)Cc1ccccn1
MRC5
  IC50: > 100 µM
PC-3
  IC50: 6.3 µM
MCF7
  IC50: > 100 µM
MDA-MB-231 [1]
  Activity: Dose-dependent effect
  IC50: 96.1 µM

## C[C@]12CCC(=O)C(O)=C1CC[C@@H]1[C@@H]2CC[C@]2(C)C(=O)CC[C@@H]12 [FORMESTANE]
HeLa
  IC50: 5.55 µM
HT-29
  IC50: > 100 µM
MRC5
  IC50: > 100 µM
PC-3
  IC50: 48.4 µM
MCF7
  IC50: > 100 µM
MDA-MB-231 [1]
  Activity: Dose-dependent effect
  IC50: 55.5 µM

## C[C@]12CCC=CC1=CC[C@@H]1[C@@H]2CC[C@]2(C)/C(=C/c3ccccn3)CC[C@@H]12
HeLa
  IC50: 23.3 µM
HT-29
  IC50: 1.8 µM
MRC5
  IC50: > 100 µM
PC-3
  IC50: 19.9 µM
MCF7
  IC50: 55.8 µM
MDA-MB-231 [1]
  Activity: Dose-dependent effect
  IC50: 4.6 µM

## COC1=C2CC[C@@H]3[C@H](CC[C@]4(C)/C(=C/c5ccccn5)CC[C@@H]34)[C@@]2(C)CCC1=O
HeLa
  IC50: 15.3 µM
HT-29
  IC50: 56 µM
MRC5
  IC50: > 100 µM
PC-3
  IC50: 34.1 µM
MCF7
  IC50: > 100 µM
MDA-MB-231 [1]
  Activity: Dose-dependent effect
  IC50: 4.1 µM
MDA-MB-231 [3]
  Activity: 10%

## C[C@]12CCC(=O)C=C1C(=O)C[C@@H]1[C@@H]2CC[C@@]2(C)[C@H]1CC[C@@]2(O)Cc1ccccn1
HeLa
  IC50: > 100 µM
HT-29
  IC50: > 100 µM
MRC5
  IC50: > 100 µM
PC-3
  IC50: 4.3 µM
MCF7
  IC50: > 100 µM
MDA-MB-231 [1]
  Activity: Dose-dependent effect
  IC50: > 100 µM

## C[C@]12CC[C@H](O)[C@H](O)C1=CC[C@@H]1[C@@H]2CC[C@@]2(C)[C@H]1CC[C@@]2(O)Cc1ccccn1
HeLa
  IC50: 26.6 µM
HT-29
  IC50: 8 µM
MRC5
  IC50: > 100 µM
PC-3
  IC50: 52.1 µM
MCF7
  IC50: > 100 µM
MDA-MB-231 [1]
  Activity: Dose-dependent effect
  IC50: 9 µM
MDA-MB-231 [2]
  Ratio IC50: 10

## CC(=O)O[C@@H]1C=C2CC[C@@H]3[C@H](CC[C@@]4(C)[C@H]3CC[C@@]4(O)Cc3ccccn3)[C@@]2(C)CC1
HeLa
  IC50: > 100 µM
HT-29
  IC50: 10.6 µM
MRC5
  IC50: > 100 µM
PC-3
  IC50: 31.3 µM
MCF7
  IC50: > 100 µM
MDA-MB-231 [1]
  Activity: Dose-dependent effect
  IC50: 10.2 µM

## C[C@]12CC[C@H](O)C=C1CC[C@@H]1[C@@H]2CC[C@]2(C)/C(=C/c3ccccn3)CC[C@@H]12
MRC5
  IC50: > 100 µM
PC-3
  IC50: 10.1 µM
MCF7
  IC50: > 100 µM
MDA-MB-231 [1]
  Activity: Dose-dependent effect
  IC50: > 100 µM

## C[C@]12CC[C@H](O)C=C1CC[C@@H]1[C@@H]2CC[C@@]2(C)[C@H]1CC[C@@]2(O)Cc1ccccn1
HeLa
  IC50: 26.9 µM
HT-29
  IC50: > 100 µM
MRC5
  IC50: > 100 µM
PC-3
  IC50: 22.3 µM
MCF7
  IC50: > 100 µM
MDA-MB-231 [1]
  Activity: Dose-dependent effect
  IC50: 3.8 µM
